Measured values: patent US8008345B2, “Dermal therapy using phosphate derivatives of electron transfer agents” (Vital Health Sciences Pty. Ltd., priority 2001, dated 2011)
Where a name gives a salt, the structure may show the parent alone.

Legend:
photodamaged skin (face) = experiment: Eight-week pilot study on photodamaged skin: clinical grading of efficacy (aging) parameters; type: in vivo, human; settings: pilot study outcome, stated for the active
Experimental: An eight-week double blind vehicle controlled pilot study was conducted to evaluate the effects of a topical treatment comprising tocopheryl phosphate complexes on improving the appearance of photodamaged skin. Ten female subjects completed the pilot study.
At Visit 1 (screening), prospective subjects completed a health and eligibility questionnaire, and signed a photography release form and an informed consent agreement. Subjects were examined for study eligibility criteria according to the following classifications: […]
Qualified subjects returned to the clinic for Visit 2 (baseline). Subjects participated in the following clinical grading and instrumentation procedures: • Objective irritation (erythema, edema, scaling/skin dryness, rash) and subjective irritation (burning, itching, stinging, tingling, tightness) were assessed globally on the face. Results were recorded using the following scale: 0=none, 1=mild, 2=moderate, and 3=severe. • The following efficacy (aging) parameters were graded at the specified locations using a analog scale (extremes of the scale are listed in parentheses). […]
Mean scores for clinical grading parameters and pinch recoil measurements at Week 4 and Week 8 were statistically compared to baseline using a paired t-test at the p≦0.05 significance level. Mean percent change from baseline was calculated for all attributes. […]

facial skin = test system: facial skin; design: species or system human; settings: in vivo
Experimental: Qualified subjects returned to the clinic for Visit 2 (baseline). Subjects participated in the following clinical grading and instrumentation procedures: • Objective irritation (erythema, edema, scaling/skin dryness, rash) and subjective irritation (burning, itching, stinging, tingling, tightness) were assessed globally on the face. Results were recorded using the following scale: 0=none, 1=mild, 2=moderate, and 3=severe. • The following efficacy (aging) parameters were graded at the specified locations using a analog scale (extremes of the scale are listed in parentheses).
Subjects were assigned to use test material Product A (cream from Example 4) or Product B (Vehicle control: emulsion system) according to a predetermined randomization. […]
Mean scores for clinical grading parameters and pinch recoil measurements at Week 4 and Week 8 were statistically compared to baseline using a paired t-test at the p≦0.05 significance level. Mean percent change from baseline was calculated for all attributes. […] For self-assessment questionnaire responses at Week 4 and Week 8, mean response values and standard deviations were calculated for each question.
Irritation parameters were graded according to a four-point scale where 0=None, 1=Mild, 2=Moderate, and 3=Severe. Efficacy parameters were assessed according to an analog scale where 0 represents positive scores and 10 represents negative scores.

insect bite = experiment: Case: insect bite with blistering and inflammation (Example 9); type: in vivo, human; settings: oral anti-histamine plus topical corticosteroid cream together, first day
Source text: In this example, a method of the invention is used to treat erythema and inflammation symptoms associated with an insect bite.

## Lauryliminodipropionic Acid Tocopheryl Phosphate
Photodamaged skin (face)
  appearance of fine lines, wrinkles and skin elasticity in photodamaged skin: improved the appearance of fine lines, wrinkles and skin elasticity
Facial skin
  objective or subjective skin irritation responses in users: did not produce objective or subjective skin irritation responses

## CC(C)(C(=O)O)c1ccc(C(O)CCCN2CCC(C(O)(c3ccccc3)c3ccccc3)CC2)cc1 (stereo not drawn) [fexofenadine hydrochloride]
Insect bite
  improvement of bite: little improvement
